In EP0013144A1, “Substituted diphenylamine derivatives, compositions and herbicidal uses thereof, and processes for their preparation” (ICI AUSTRALIA LIMITED, priority 1978, dated 1980):

Key:
Type in all cases: in vivo
[1] = test system: Maize; assay: Post-emergence herbicidal test, young pot plants (Example 33); parameters: key: 0 is 0 to 20% damage; 5 is complete kill; settings: after 14 days
Description: (§1) The compounds were formulated for test by mixing an appropriate amount with 5 ml of an emulsion prepared by diluting 160 ml of a solution containing 21.S g per litre of "Span" 80 and 78.2 g per litre of "Tween" 20 in methylcyclohexanone to 500 ml with water. "Span" 80 is a Trade Mark for a surface-active agent comprising sorbitan monolaurate. "Tween" 20 is a Trade Mark for a surface-active agent comprising a condensate of sorbitan monolaurate with 20 molar proportions of ethylene oxide. Each 5 ml emulsion containing a test compound was'then diluted to 40 ml with water and sprayed on to young pot plants (post-emergence test) of the species named in Table 5 below. Damage to test plants was assessed after 14 days on a scale of 0 to 5 where 0 is 0 to 20% damage and 5 is complete kill. In a test for pre-emergence herbicidal activity, seeds of the test plants were sown in a shallow slit formed in the surface of soil in fibre trays. The surface was then levelled and sprayed, and fresh soil then spread thinly over the sprayed surface. Assessment of herbicidal damage was carried out after 21 days using the same scale of 0 to 5 as the post-emergence test. In both cases the degree of herbicidal damage was assessed by comparison with untreated control plants. A dash (-) means that no experiment was carried out.

[2] = test system: Rice; assay: as above; parameters: key: 0 is 0 to 20% damage; 5 is complete kill; settings: after 14 days
Description: as §1

[3] = test system: Ryegrass; assay: Pre-emergence herbicidal activity (Example 31); parameters: key: 0-3 scale: 0 = 0-25% damage, 3 = 75-99% kill, 3+ = 100% kill; settings: after three weeks
In short: (§2)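 Ratings run from 0 (0–25% damage) to 3 (75–99% kill), with 3+ meaning complete kill, assessed visually three weeks after spraying. Treatment was applied to soil right after sowing, before germination was triggered by overhead watering in the glasshouse.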

[4] = test system: Mustard; assay: Pre-emergence herbicidal activity (Example 31); settings: after three weeks
In short: as §2

[5] = test system: Ipomea; assay: Pre-emergence herbicidal activity (Example 31); settings: after three weeks
In short: as §2

[6] = test system: Japanese millet; assay: Pre-emergence herbicidal activity (Example 31); settings: after three weeks
In short: as §2

[7] = test system: Sunflower; assay: Pre-emergence herbicidal activity (Example 31); settings: after three weeks
In short: as §2

[8] = test system: Amaranthus retroflexus; assay: Post-emergence herbicidal test, young pot plants (Example 33); settings: after 14 days
Description: as §1

[9] = test system: Sugar beet; assay: as above; settings: after 14 days
Description: as §1

[10] = test system: Chenopodium album; assay: as above; settings: after 14 days
Description: as §1

[11] = test system: Cotton; assay: as above; settings: after 14 days
Description: as §1

[12] = test system: Ipomea purpurea; assay: as above; settings: after 14 days
Description: as §1

[13] = test system: Soy bean; assay: as above; settings: after 14 days
Description: as §1

[14] = test system: Sunflower; assay: Post-emergence herbicidal activity (Example 32); settings: 3 weeks after spraying
In short: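 Glasshouse-raised seedlings received a single foliar spray once 10–12.5 cm high. The dose form was a diluted emulsifiable concentrate or milled suspension. Three weeks later, damage was visually graded 0–3, where 3+ denotes complete kill.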

[15] = test system: Senecio vulgaris; assay: Pre-emergence herbicidal test, fibre trays (Example 33); settings: after 21 days
Description: as §1

[16] = test system: Sugar beet; assay: as above; settings: after 21 days
Description: as §1

[17] = test system: Rape; assay: as above; settings: after 21 days
Description: as §1

[18] = test system: Cotton; assay: as above; settings: after 21 days
Description: as §1

[19] = test system: Ipomea purpurea; assay: as above; settings: after 21 days
Description: as §1

[20] = test system: Winter wheat; assay: as above; settings: after 21 days
Description: as §1

[21] = test system: Soy bean; assay: as above; settings: after 21 days
Description: as §1

[22] = test system: Maize; assay: as above; parameters: key: 0 = 0-20% damage, 5 = complete kill, vs untreated control; settings: after 21 days
Description: as §1

Row | Structure (SMILES) | damage to test plants, Mz ([1]; 2.0 kg/ha) | damage to test plants, Rc ([2]; 2.0 kg/ha) | damage to plants, Rg ([3]; 1 kg/ha) | damage to plants, Rg ([3]; 5 kg/ha) | damage to plants, Ms ([4]; 1 kg/ha) | damage to plants, Ms ([4]; 5 kg/ha) | damage to plants, Ip ([5]; 1 kg/ha) | damage to plants, Ip ([5]; 5 kg/ha) | damage to plants, Jm ([6]; 1 kg/ha) | damage to plants, Jm ([6]; 5 kg/ha) | damage to plants, Sf ([7]; 1 kg/ha) | damage to plants, Sf ([7]; 5 kg/ha) | damage to test plants, Am ([8]; 2.0 kg/ha) | damage to test plants, Sb ([9]; 2.0 kg/ha) | damage to test plants, Ca ([10]; 2.0 kg/ha) | damage to test plants, Ct ([11]; 2.0 kg/ha) | damage to test plants, Ip ([12]; 2.0 kg/ha) | damage to test plants, Sy ([13]; 2.0 kg/ha) | damage to plants, Sf ([14]; 1 kg/ha) | damage to plants, Sf ([14]; 5 kg/ha) | other results
1 | COC(=O)C(C)Oc1ccc(N(C)c2ccc(Cl)cc2Cl)cc1 (stereo not shown) [Compound 1, Methyl 2-[4-(2,4-dichloro-N-methylanilino)phenoxy]-propionate] | 5 | 0 (0 is 0 to 20% damage) | 1 | 3 (3 represents 75 to 99% kill) | 0 (0 represents from 0 to 25% damage) | 0 (0 represents from 0 to 25% damage) | 0 (0 represents from 0 to 25% damage) | 0 (0 represents from 0 to 25% damage) | 0 (0 represents from 0 to 25% damage) | 0 (0 represents from 0 to 25% damage) | 0 (0 represents from 0 to 25% damage) | 0 (0 represents from 0 to 25% damage) | 2 | 3 | 3 | 1 | 0 (0 is 0 to 20% damage) | 1 | 0 (0 represents 0 to 25% damage) | 0 (0 represents 0 to 25% damage) | herbicidal damage, Sn ([15]; 2.0 kg/ha): 0 (0 is 0 to 20% damage); herbicidal damage, Sb ([16]; 2.0 kg/ha): 0 (0 is 0 to 20% damage); herbicidal damage, Rp ([17]; 2.0 kg/ha): 2; herbicidal damage, Ct ([18]; 2.0 kg/ha): 0 (0 is 0 to 20% damage); herbicidal damage, Ip ([19]; 2.0 kg/ha): 0 (0 is 0 to 20% damage); herbicidal damage, Ww ([20]; 2.0 kg/ha): 0 (0 is 0 to 20% damage); herbicidal damage, Sy ([21]; 2.0 kg/ha): 2; herbicidal damage, Mz ([22]; 2.0 kg/ha): 0 (0 is 0 to 20% damage)
2 | COC(=O)C(C)Oc1ccc(N(C)c2ccc(Cl)cc2[N+](=O)[O-])cc1 (stereo not shown) [Compound 27] | 5 | 4 | 1 | 3 (3 represents 75 to 99% kill) | 0 (0 represents from 0 to 25% damage) | 0 (0 represents from 0 to 25% damage) | 0 (0 represents from 0 to 25% damage) | 0 (0 represents from 0 to 25% damage) | 1 | 3 (3 represents 75 to 99% kill) | 0 (0 represents from 0 to 25% damage) | 0 (0 represents from 0 to 25% damage) | 0 (0 is 0 to 20% damage) | 0 (0 is 0 to 20% damage) | 0 (0 is 0 to 20% damage) | 0 (0 is 0 to 20% damage) | 0 (0 is 0 to 20% damage) | 0 (0 is 0 to 20% damage) | 0 (0 represents 0 to 25% damage) | 0 (0 represents 0 to 25% damage) | herbicidal damage, Sn ([15]; 2.0 kg/ha): 1; herbicidal damage, Sb ([16]; 2.0 kg/ha): 0 (0 is 0 to 20% damage); herbicidal damage, Rp ([17]; 2.0 kg/ha): 0 (0 is 0 to 20% damage); herbicidal damage, Ct ([18]; 2.0 kg/ha): 0 (0 is 0 to 20% damage); herbicidal damage, Ip ([19]; 2.0 kg/ha): 0 (0 is 0 to 20% damage); herbicidal damage, Ww ([20]; 2.0 kg/ha): 1; herbicidal damage, Sy ([21]; 2.0 kg/ha): 0 (0 is 0 to 20% damage); herbicidal damage, Mz ([22]; 2.0 kg/ha): 1
3 | COC(=O)C(C)Oc1ccc(Nc2ccc(Cl)cc2[N+](=O)[O-])cc1 (stereo not shown) [Compound 28] |  |  | 3 (3 represents 75 to 99% kill) | 3+ (3+ represents 100% kill) | 0 (0 represents from 0 to 25% damage) | 0 (0 represents from 0 to 25% damage) | 0 (0 represents from 0 to 25% damage) | 0 (0 represents from 0 to 25% damage) | 3+ (3+ represents 100% kill) | 3+ (3+ represents 100% kill) | 0 (0 represents from 0 to 25% damage) | 0 (0 represents from 0 to 25% damage) |  |  |  |  |  |  | 0 (0 represents 0 to 25% damage) | 0 (0 represents 0 to 25% damage) | damage to test plants, Mz ([1]; 1.0 kg/ha): 5; damage to test plants, Rc ([2]; 1.0 kg/ha): 4; damage to test plants, Am ([8]; 1.0 kg/ha): 0 (0 is 0 to 20% damage); damage to test plants, Sb ([9]; 1.0 kg/ha): 1; damage to test plants, Ca ([10]; 1.0 kg/ha): 0 (0 is 0 to 20% damage); damage to test plants, Ct ([11]; 1.0 kg/ha): 0 (0 is 0 to 20% damage); damage to test plants, Ip ([12]; 1.0 kg/ha): 0 (0 is 0 to 20% damage); damage to test plants, Sy ([13]; 1.0 kg/ha): 0 (0 is 0 to 20% damage); herbicidal damage, Sn ([15]; 1.0 kg/ha): 0 (0 is 0 to 20% damage); herbicidal damage, Sb ([16]; 1.0 kg/ha): 0 (0 is 0 to 20% damage); herbicidal damage, Rp ([17]; 1.0 kg/ha): 0 (0 is 0 to 20% damage); herbicidal damage, Ct ([18]; 1.0 kg/ha): 0 (0 is 0 to 20% damage); herbicidal damage, Ip ([19]; 1.0 kg/ha): 0 (0 is 0 to 20% damage); herbicidal damage, Ww ([20]; 1.0 kg/ha): 2; herbicidal damage, Sy ([21]; 1.0 kg/ha): 0 (0 is 0 to 20% damage); herbicidal damage, Mz ([22]; 1.0 kg/ha): 0 (0 is 0 to 20% damage)
4 | COC(=O)C(C)Oc1ccc(Nc2ccc(Br)cc2[N+](=O)[O-])cc1 (stereo not shown) [Compound 29] | 5 | 5 | 2 | 3 (3 represents 75 to 99% kill) | 0 (0 represents from 0 to 25% damage) | 0 (0 represents from 0 to 25% damage) | 0 (0 represents from 0 to 25% damage) | 0 (0 represents from 0 to 25% damage) | 2 | 3 (3 represents 75 to 99% kill) | 0 (0 represents from 0 to 25% damage) | 0 (0 represents from 0 to 25% damage) | 0 (0 is 0 to 20% damage) | 0 (0 is 0 to 20% damage) | 0 (0 is 0 to 20% damage) | 0 (0 is 0 to 20% damage) | 0 (0 is 0 to 20% damage) | 2 | 0 (0 represents 0 to 25% damage) | 0 (0 represents 0 to 25% damage) | herbicidal damage, Sn ([15]; 2.0 kg/ha): 3; herbicidal damage, Sb ([16]; 2.0 kg/ha): 0 (0 is 0 to 20% damage); herbicidal damage, Rp ([17]; 2.0 kg/ha): 0 (0 is 0 to 20% damage); herbicidal damage, Ct ([18]; 2.0 kg/ha): 0 (0 is 0 to 20% damage); herbicidal damage, Ip ([19]; 2.0 kg/ha): 0 (0 is 0 to 20% damage); herbicidal damage, Ww ([20]; 2.0 kg/ha): 3; herbicidal damage, Sy ([21]; 2.0 kg/ha): 0 (0 is 0 to 20% damage); herbicidal damage, Mz ([22]; 2.0 kg/ha): 1
